According to patent publication US9737535B2, “Methods for treating cancer using TOR kinase inhibitor combination therapy comprising administering substituted pyrazino[2,3-b]pyrazines” (Signal Pharmaceuticals, LLC, priority 2014, dated 2017):

Key:
[1] = tested on: breast cancer cell line panel; assay: Anti-proliferation assay, seventeen breast cancer cell line panel; assay type: cell-based; conditions: single agent, cell lines where the GI50 reached inhibition levels of greater than fifty percent, read-out: median GI50
Text: Cells were thawed from a liquid nitrogen preserved state. […] After seventy-two hours, […] developed for endpoint analysis using ATPLite. […] The calculation for synergy score is provided below. […] Compound 1 had varying activity across the seventeen cell line panel.

[2] = tested on: cancer cell lines (T47D, MCF, MDA-MM468, HCC-70, SKBR-3, MM-453); assay: Anti-proliferation assay with +JQ1, cancer cell lines overall; assay type: cell-based; conditions: treatment with +JQ1
Protocol: (§1) Cells were grown, treated and analyzed as described above, and synergy was calculated using the Chalice Software (Zalicus, Inc., Cambridge Mass.), described above. Cell lines used included T47D (human ductal breast epithelial tumor cell line), MCF (adenocarcinoma breast cancer cell line), MDA-MM468 (adenocarcinoma breast cancer cell line), HCC-70 (carcinoma, ductal breast cancer cell line), SKBR-3 (adenocarcinoma breast cancer cell line), MM-453 (adenocarcinoma breast cancer cell line).

T47-D = assay: Anti-proliferation assay with +JQ1, Chalice synergy score; assay type: cell-based, human; conditions: combination with +JQ1, average
Protocol: (§2) Cells were thawed from a liquid nitrogen preserved state.
(§3) The calculation for synergy score is provided below.
(§4) If T≧V0:100*[1−(T−V0)/(V−V0)]
as §1

HCC-70 = assay: as above; assay type: cell-based; conditions: combination with +JQ1, average
Protocol: as §2, §3, §4, §1

MM-453 = assay: as above; assay type: cell-based; conditions: combination with +JQ1, average
Protocol: as §2, §3, §4, §1

SKBR-3 = assay: as above; assay type: cell-based; conditions: combination with +JQ1, average
Protocol: as §2, §3, §4, §1

MM-468 = assay: as above; assay type: cell-based; conditions: combination with +JQ1, average
Protocol: as §2, §3, §4, §1

MCF-7 = assay: as above; assay type: cell-based; conditions: combination with +JQ1, average
Protocol: as §2, §3, §4, §1

[3] = tested on: caspase 3/7 activation in NCI-H441 cells; assay: Caspase-Glo 3/7 assay; assay type: cell-based; conditions: 24 hours post-treatment, normalized to DMSO control, combination at 1:1
Protocol: Cell lines were maintained in the growth medium recommended by ATCC (American Type Culture Collection). […] The compounds were serially diluted in DMSO from the highest concentration of 30 μM (single compounds and in combination with constant a constant ratio of 1:1). […] The percentage of induction of apoptosis was normalized to DMSO control (no compound).

CCN1C(=O)CNc2ncc(-c3ccc(-c4nc[nH]n4)nc3C)nc21 [Compound 1, 1-ethyl-7-(2-methyl-6-(1H-1,2,4-triazol-3-yl)pyridin-3-yl)-3,4-dihydropyrazino[2,3-b]pyrazin-2(1H)-one]
GI50 [1]: 140 nM
Synergism [2]: Synergism was observed
Chalice Calculated Synergy Scores, Averages (T47-D): 8.74
Chalice Calculated Synergy Scores, Averages (HCC-70): 12.05
Chalice Calculated Synergy Scores, Averages (MM-453): 16.37
Chalice Calculated Synergy Scores, Averages (SKBR-3): 9.59
Chalice Calculated Synergy Scores, Averages (MM-468): 17.26
Chalice Calculated Synergy Scores, Averages (MCF-7): 7.37

O=C(NOCC1CC1)c1ccc(F)c(F)c1Nc1ccc(I)cc1Cl [CI-1040]
% Caspase activation Mean (n = 3) ([3]; 0.1 μM): 98.6%
% Caspase activation Mean (n = 3) ([3]; 0.3 μM): 104.1%
% Caspase activation Mean (n = 3) ([3]; 1 μM): 96.6%
% Caspase activation Mean (n = 3) ([3]; 3 μM): 99.3%
% Caspase activation Mean (n = 3) ([3]; 10 μM): 103.9%
% Caspase activation Mean (n = 3) ([3]; 30 μM): 124.2%

CO[C@H]1CC[C@H](N2C(=O)CNc3ncc(-c4ccc(C(C)(C)O)nc4)nc32)CC1 [Compound 2, 7-(6-(2-hydroxypropan-2-yl)pyridin-3-yl)-1-((1r,4r)-4-methoxycyclohexyl)-3,4-dihydropyrazino-[2,3-b]pyrazin-2(1H)-one]
% Caspase activation Mean (n = 3) ([3]; 0.1 μM): 69.9%
% Caspase activation Mean (n = 3) ([3]; 0.3 μM): 66.4%
% Caspase activation Mean (n = 3) ([3]; 1 μM): 67.7%
% Caspase activation Mean (n = 3) ([3]; 3 μM): 77.7%
% Caspase activation Mean (n = 3) ([3]; 10 μM): 80%
% Caspase activation Mean (n = 3) ([3]; 30 μM): 85.5%
Synergism [2]: Synergism was observed
Chalice Calculated Synergy Scores, Averages (T47-D): 4.02
Chalice Calculated Synergy Scores, Averages (HCC-70): 5.98
Chalice Calculated Synergy Scores, Averages (MM-453): 7.03
Chalice Calculated Synergy Scores, Averages (SKBR-3): 6.14
Chalice Calculated Synergy Scores, Averages (MM-468): 11.58
Chalice Calculated Synergy Scores, Averages (MCF-7): 2.07
